Data: paper PMC10761119, “Phosphorylation-state dependent intraneuronal sorting of Aβ differentially impairs autophagy and the endo-lysosomal system” (Autophagy, 2023)

Experiments:
primary cortical neurons [1] = assay: Immunocytochemistry of surface associated and internalized Aβ; format: cell-based, mouse; conditions: Aβ 500 nM, 4 h; antibody 82E1; ~200 neurons, N = 4
primary cortical neurons [2] = assay: Immunocytochemistry colocalization of internalized Aβ with vesicular markers (Mander's overlap coefficient); format: cell-based, mouse; conditions: Aβ 500 nM, 4 h, mean ± S.D., n = 6, N = 3; for Mander's overlap coefficient, R, with EEA1-positive vesicles: Aβ stained with 82E1
SH-SY5Y cells = assay: Quantitative western immunoblotting of autophagy and endo-lysosomal proteins; format: cell-based, human; conditions: Aβ 1 µM, 24 h, n = 6, N = 3
Procedure: SH-SY5Y cells seeded on D1, were treated with Aβ variants (1 μM) on D3 in DMEM/F-12 media without serum and antibiotics. Control treatment included treatment with equal volume of 10 mM NaOH solution used for preparing the Aβ stock solutions, in respective cell culture medium. SH-SY5Y cells, after 16 h of transient expression of the reporter constructs, were treated with different Aβ variants, autophagy modulator substrates and respective controls in DMEM/F-12, FCS^− PS^− media for the mentioned time points. After treatment, cells were washed twice with PBS and with 0.025% trypsin-EDTA in PBS to get rid of cell bound Aβ, followed by subsequent washings with PBS again. Cells were either collected by scraping using a cell-scraper or fixed with 4% PFA-PBS for 15 min at RT, for further immunocytochemistry experiments. Collected treatment media was centrifuged at 1000 g for 5 min, pellet discarded and supernatant frozen at −20°C until further usage.
Cells were collected by scraping and mechanically homogenized in hypotonic D buffer (10 mM Tris-HCl, pH 7.4, 10 mM NaCl, 0.1 mM EGTA, 25 mM glycerol 2-phosphate, 1 mM DTT) containing protease and phosphatase inhibitors by repeated suspension through a 23 G × 1” needle. Post-nuclear supernatant (PNS) was collected by centrifugation of the mechanically homogenized cellular material at 2,000 g for 5 min. The pellet was the nuclear material. Nuclear pellet was then resuspended in Buffer C (5 mM HEPES, 1.5 mM MgCl2, 0.2 mM EDTA, 0.5 mM DTT, 0.05% NP40 [Sigma Aldrich, 18876], 30% glycerol, pH 7.9) containing protease and phosphatase inhibitors, ultrasonicated at minimum voltage, three currents in four cycles, followed by repetitive cooling of samples on ice. The nuclear fraction was the supernatant collected after centrifugation at 16,100 g for 15 min. The PNS collected from the first step was centrifuged at 16,100 g for 60 min, and supernatant was used as the crude cytosolic fraction. The pellet contained the membrane materials, which were re-homogenized in hypotonic D buffer and again centrifuged at 16,100 g for 60 min. The supernatant was discarded, pellet was resuspended in STEN-lysis buffer (20 mM Tris-HCl, pH 7.5, 150 mM NaCl, 1 mM EDTA, 1 mM EGTA, 1% Triton X-100, 2.5 mM sodium pyrophosphate [Sigma Aldrich, P1835], 1 mM β-glycerophosphate [Sigma Aldrich, G9422]) containing protease and phosphatase inhibitors, and the membrane fraction was the supernatant collected after centrifugation at 16,100 g for 15 min. The crude cytosolic fraction was then further fractionated at 100,000 g for 70 min at 4°C under vacuum. The resultant supernatant was the soluble cytosolic fraction. The pellet was resuspended in STEN lysis buffer and centrifuged at 16,100 g for 15 min. The resultant supernanant represented the insoluble cytosolic fraction.
For different cellular fractions prepared as described earlier, the protein content was estimated using the standard Pierce™ BCA protein assay kit (ThermoFisher Scientific, 23225). For direct comparison between the samples, equal amount of protein was loaded. Samples were dissolved in Laemmli buffer and were boiled at 95°C for 5 min. They were loaded on a precast 4–12% NuPage® Bis-Tris gels (Life technologies, NP033–5/6, WG140–2/3). Gels and prestained protein molecular weight markers were purchased from Life technologies. The separated proteins were electro-transferred onto a 0.2-μm nitrocellulose (NT) membrane (Amersham, 1060001) for 1 h 45 min. After blotting, the NT membranes were boiled in PBS for 10 min. Ponceau staining was done to monitor protein loading of samples. The blots were then incubated in 5% skim milk in TBS-T (TBS [50 mM Tris-HCl, pH 7.5, 150 mM NaCl] containing 0.1% Tween 20 [Sigma Aldrich, P1379]) for 1 h at RT. Blots were incubated overnight at 4°C in the primary antibody solution (respective dilutions in TBS-T, Table 1). Blots were washed and incubated with appropriate secondary antibodies conjugated either with HRP or fluorescent dyes for 1 h. […]

| Substance | Fluorescence intensities of Aβ signals in unpermeabilized and permeabilized cells (binding to neuronal membranes and intraneuronal accumulation) (primary cortical neurons [1]) | Mander's overlap coefficient, R, with EEA1-positive vesicles (primary cortical neurons [2]) | Mander's overlap coefficient, R, with CTSD (primary cortical neurons [2]) | Mander's overlap coefficient, R, with LAMP2 (primary cortical neurons [2]) | Mander's overlap coefficient, R, with LC3-positive vesicles (primary cortical neurons [2]) | Mander's overlap coefficient, R, with RAB7-positive late endosomes (primary cortical neurons [2]) | ATG1-ULK1 kinase complex level (SH-SY5Y cells; western immunoblot vs control) | ATG3 level (SH-SY5Y cells; western immunoblot vs control) | EEA1 level (SH-SY5Y cells; western immunoblot vs control) | RAB5 level (SH-SY5Y cells; western immunoblot vs control) | RAB7 level (SH-SY5Y cells; western immunoblot vs control) | RAB11 level (SH-SY5Y cells; western immunoblot vs control) | Intracellular levels of the ATP6V0A1 subunit of the V-ATPase (SH-SY5Y cells; PNS fraction) | Levels of nuclear transcription factor EB (TFEB) (SH-SY5Y cells; nuclear material) | CTSD level (SH-SY5Y cells; western immunoblot vs control) | LAMP2 level (SH-SY5Y cells; western immunoblot vs control) | Levels of LC3-I and II (SH-SY5Y cells; western immunoblot, compared to control cells) |
| --- | --- | --- | --- | --- | --- | --- | --- | --- | --- | --- | --- | --- | --- | --- | --- | --- | --- |
| non-phosphorylated amyloid-β [npAβ, reference compound] | least | 0.43 ± 0.15 | 0.47 ± 0.09 | 0.45 ± 0.12 | 0.47 ± 0.09 | 0.44 ± 0.10 | increased | not | no significant | no significant | no significant | smallest effect | – | – | – | – | – |
| amyloid-β phosphorylated at serine residue 26 [p-Ser26Aβ] | followed by p-Ser26Aβ | 0.51 ± 0.14 | 0.65 ± 0.10 | 0.65 ± 0.13 | 0.52 ± 0.09 | 0.62 ± 0.15 | increased | – | no significant effect | increased | strongest effects | strongest effects | significantly increased levels | significantly increased levels | selectively increased | selectively increased | – |
| amyloid-β phosphorylated at serine residue 8 [p-Ser8Aβ] | highest fluorescence intensities | 0.58 ± 0.18 | 0.30 ± 0.06 | 0.33 ± 0.08 | 0.64 ± 0.21 | 0.33 ± 0.05 | not | – | increased | increased | – | – | – | – | – | – | significantly increased levels |
